The record followed here is patent US11976083B2, “Inhibitors of peptidylarginine deiminases” (Gilead Sciences, Inc., priority 2020, dated 2024).

The target of the assay is T1, human PAD4 (Homo sapiens, UniProt Q9UM07).
T1 construct: human PAD4 (NM_012387), A2-P663, was PCR amplified; His-SUMO (N, cleaved yes); made in house; host or cells: E. coli BL21(DE3)
T1 sequence (Q9UM07 2-663): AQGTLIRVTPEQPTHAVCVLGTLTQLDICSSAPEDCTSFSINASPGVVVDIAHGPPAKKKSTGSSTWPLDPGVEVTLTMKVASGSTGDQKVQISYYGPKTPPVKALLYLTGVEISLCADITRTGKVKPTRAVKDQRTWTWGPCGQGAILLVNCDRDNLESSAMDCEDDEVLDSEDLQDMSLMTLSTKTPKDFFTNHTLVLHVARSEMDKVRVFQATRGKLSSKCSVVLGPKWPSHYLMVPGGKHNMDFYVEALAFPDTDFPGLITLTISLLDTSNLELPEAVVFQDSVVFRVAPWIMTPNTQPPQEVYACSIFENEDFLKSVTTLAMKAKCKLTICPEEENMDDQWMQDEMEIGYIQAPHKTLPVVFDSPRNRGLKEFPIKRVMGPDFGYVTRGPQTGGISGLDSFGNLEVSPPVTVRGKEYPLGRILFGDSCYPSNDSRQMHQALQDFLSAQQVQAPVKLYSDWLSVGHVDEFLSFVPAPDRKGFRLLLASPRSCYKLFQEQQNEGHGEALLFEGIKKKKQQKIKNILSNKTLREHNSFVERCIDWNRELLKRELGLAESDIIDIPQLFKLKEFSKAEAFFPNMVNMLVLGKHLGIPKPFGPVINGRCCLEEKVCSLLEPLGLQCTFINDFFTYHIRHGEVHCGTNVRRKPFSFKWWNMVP
Put plainly: In vitro PAD4 BAEE biochemical assay. Conditions: BAEE substrate 3 mM, 5 nM PAD4, 2 mM calcium chloride; geometric mean of multiple experiments. The method, boiled down:
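Ammonia produced by BAEE deimination (3 mM substrate, 2 h, 25 °C) was read as fluorescent isoindole after o-phthalaldehyde/DTT derivatization, ex 405 nm/em 535 nm. Human PAD4 at 5 nM final, 2 mM calcium, pH 7.6 MOPS; compound preincubated 30 min. IC50s, normalized to BB-Cl-Amidine and DMSO controls, were geometric-mean averaged.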
By IC50 is commonly meant the concentration that inhibits the measured activity by half. Consider `[2H]C([2H])([2H])O[C@@H]1CCN(C(=O)c2cc(F)c3c(c2)nc(-c2cc4ccc5nc4n2CC(F)(F)CCC[C@@H]2C[C@H]2C(=O)N[C@@H]5C)n3C2CC2)C[C@@H]1N` [Example 641, (2~{R},5~{R},7~{R})-14-[5-[(3~{S},4~{R})-3-amino-4-(trideuteriomethoxy)piperidine-1-carbonyl]-1-cyclopropyl-7-fluoro-benzimidazol-2-yl]-11,11-difluoro-2-methyl-3,13,19-triazatetracyclo[11.5.2.0^ {5,7}.0^{16,20}]icosa-1(19),14,16(20),17-tetraen-4-one], for which the half-inhibitory concentration (IC50) was determined as 49 nM.
For `COc1cc(C(=O)N2[C@H]3CC[C@@H]2[C@H](N)C3)cc2nc(-c3cc4ccc5nc4n3CC(F)(F)CCC[C@@H]3C[C@H]3C(=O)N[C@@H]5C)n(C)c12` [Example 642, (2~{R},5~{R},7~{R})-14-[5-[(1~{R},2~{R},4~ {S})-2-amino-7-azabicyclo[2.2.1]heptane-7-carbonyl]-7-methoxy-1-methyl-benzimidazol-2-yl]-11,11-difluoro-2-methyl-3,13,19-triazatetracyclo [11.5.2.0^{5,7}.0^{16,20}] icosa-1(19),14,16(20), 17-tetraen-4-one] the value was 23 nM; for `COc1cc(C(=O)N2CC[C@@H](OC)[C@@H](N)C2)cc2nc(-c3cc4ccc5c(F)c4n3CCCCCCC(C)(C)C(=O)N[C@@H]5C)n(C)c12` [Example 643, (11~{R})-17-[5-[(3~{S}, 4~{R})-3-amino-4-methoxy-piperidine-1-carbonyl]-7-methoxy-1-methyl-benzimidazol-2-yl]-19-fluoro-8,8,11-trimethyl-1,10-diazatricyclo[10.5.2.0^ {15,18}]nonadeca-12(19),13,15(18),16-tetraen-9-one], 54 nM.
For `COc1cc(C(=O)N2CCC[C@@H](N)[C@H]2C(F)F)cc2nc(-c3cc4ccc5nc4n3CCCCCCC(C)(C)C(=O)N[C@@H]5C)n(C)c12` [Example 644, (11~{R})-17-[5-[(2~{S), 3~{R})-3-amino-2-(difluoromethyl)piperidine-1-carbonyl]-7-methoxy-1-methyl-benzimidazol-2-yl]-8,8,11-trimethyl-1,10,19-triazatricyclo [10.5.2.0^{15,18}]nonadeca-12(19),13,15(18),16-tetraen-9-one] the value was 76 nM; for `COc1cc(C(=O)N2CCC[C@@H](N)[C@H]2C)cc2nc(-c3cc4ccc5c(F)c4n3CCCCCCC(C)(C)C(=O)N[C@@H]5C)n(C)c12` [Example 645, (11~{R})-17-[5-[(2~{R},3~ {R})-3-amino-2-methyl-piperidine-1-carbonyl]-7-methoxy-1-methyl-benzimidazol-2-yl]-19-fluoro-8,8,11-trimethyl-1,10-diazatricyclo [10.5.2.0^{15,18}]nonadeca-12(19),13,15(18),16-tetraen-9-one], 36 nM.
`C[C@H]1NC(=O)[C@@H]2C[C@H]2CCCC(F)(F)Cn2c(-c3nc4cc(C(=O)N5C[C@H]6CC[C@@H]5[C@@H]6N)cc(F)c4n3C3CC3)cc3ccc1nc32` [Example 646, (2~{R},5~{R},7~{R})-14-[5-[(1~{R},4~{R},7~{R})-7-amino-2-azabicyclo [2.2.1]heptane-2-carbonyl]-1-cyclopropyl-7-fluoro-benzimidazol-2-yl]-11,11-difluoro-2-methyl-3,13,19-triazatetracyclo [11.5.2.0^{5,7}.0^{16,20}] icosa-1(19),14,16(20), 17-tetraen-4-one]: the IC50 stood at 22 nM.
For `COc1cc(C(=O)N2CCC[C@@H](N)[C@H]2C(F)F)cc2nc(-c3cc4ccc5nc4n3CC(F)(F)CCC[C@@H]3C[C@H]3C(=O)N[C@@H]5C)n(C)c12` [Example 647, (2~{R},5~{R},7~{R})-14-[5-[(2~{S},3~{R})-3-amino-2-(difluoromethyl)piperidine-1-carbonyl]-7-methoxy-1-methyl-benzimidazol-2-yl]-11,11-difluoro-2-methyl-3,13,19-triazatetracyclo[11.5.2.0^ {5,7}.0^{16,20}] icosa-1(19),14,16(20), 17-tetraen-4-one] the value was 58 nM; for `COc1cc(C(=O)N2CC[C@@H](OC)[C@@H](N)C2)cc2nc(-c3cc4ccc5c(F)c4n3CC(F)(F)CCC[C@@H]3C[C@H]3C(=O)N[C@@H]5C)n(C)c12` [Example 648, (2~{R},5~{R},7~{R})-14-[5-[(3~{S},4~{R})-3-amino-4-methoxy-piperidine-1-carbonyl]-7-methoxy-1-methyl-benzimidazol-2-yl]-11,11,19-trifluoro-2-methyl-3,13-diazatetracyclo[11.5.2.0^ {5,7}.0^{16,20}] icosa-1(19),14,16(20), 17-tetraen-4-one], 41 nM; for `COc1cc(C(=O)N2CC[C@@H](OC)[C@@H](N)C2)cc2nc(-c3cc4ccc5nc4n3CCCCCc3ccncc3C(=O)N[C@@H]5C)n(C)c12` [Example 649, (2~{R})-17-[5-[(3~{S), 4~{R})-3-amino-4-methoxy-piperidine-1-carbonyl]-7-methoxy-1-methyl-benzimidazol-2-yl]-2-methyl-3,7,16,22-tetrazatetracyclo[14.5.2.0^ {5,10}.0^{19,23}] tricosa-1(22),5,7,9,17,19(23), 20-heptaen-4-one], 52 nM.
For `COc1cc(C(=O)N2CC[C@@H](OC)[C@@H](N)C2)cc2nc(-c3cc4ccc5nc4n3CCCCCc3cncc(F)c3C(=O)N[C@@H]5C)n(C)c12` [Example 650, (2~{R})-17-[5-[(3~{S}, 4~{R})-3-amino-4-methoxy-piperidine-1-carbonyl]-7-methoxy-1-methyl-benzimidazol-2-yl]-6-fluoro-2-methyl-3,8,16,22-tetrazatetracyclo[14.5.2.0^ {5,10}.0^{19,23}]tricosa-1(22),5,7,9,17,19(23),20-heptaen-4-one] the value was 59 nM; for `COc1cc(C(=O)N2CC[C@@H](OC)[C@@H](N)C2)cc2nc(-c3cc4ccc5nc4n3CCCCCc3cncc(Cl)c3C(=O)N[C@@H]5C)n(C)c12` [Example 651, (2~{R})-17-[5-[(3~{S}, 4~{R})-3-amino-4-methoxy-piperidine-1-carbonyl]-7-methoxy-1-methyl-benzimidazol-2-yl]-6-chloro-2-methyl-3,8,16,22-tetrazatetracyclo[14.5.2.0^ {5,10).0^{19,23}]tricosa-1(22),5,7,9,17,19(23),20-heptaen-4-one], 59 nM.
With `CO[C@@H]1CCN(C(=O)c2ccc3c(c2)nc(-c2cc4ccc5nc4n2CCCCCc2cc(Cl)ncc2C(=O)N[C@@H]5C)n3C2CC2)C[C@@H]1N` [Example 652, 17-[5-[(3~{S},4~{R})-3-amino-4-methoxy-piperidine-1-carbonyl]-1-cyclopropyl-benzimidazol-2-yl]-8-chloro-2-methyl-3,7,16,22-tetrazatetracyclo[14.5.2.0^ {5,10}.0^{19,23}] tricosa-1(22),5,7,9,17,19(23), 20-heptaen-4-one] the figure was 42 nM.
Regarding `COc1cc(C(=O)N2CC[C@@H](OC)[C@@H](N)C2)cc2nc(-c3cc4ccc5nc4n3CCCCCc3cc(Cl)ncc3C(=O)N[C@@H]5C)n(C)c12` [Example 653, 17-[5-[(3~{S},4~{R})-3-amino-4-methoxy-piperidine-1-carbonyl]-7-methoxy-1-methyl-benzimidazol-2-yl]-8-chloro-2-methyl-3,7,16,22-tetrazatetracyclo[14.5.2.0^ {5,10}.0^{19,23}] tricosa-1(22),5,7,9,17,19(23), 20-heptaen-4-one], the IC50 came to 44 nM.
For `COc1cc(C(=O)N2CC[C@@H](OC)[C@@H](N)C2)cc2nc(-c3cc4ccc5nc4n3CCCCCc3ccccc3C(=O)N(C)[C@@H]5C)n(C)c12` [Example 654, (2~{R})-17-[5-[(3~{S},4~{R})-3-amino-4-methoxy-piperidine-1-carbonyl]-7-methoxy-1-methyl-benzimidazol-2-yl]-2,3-dimethyl-3,16,22-triazatetracyclo[14.5.2.0^ {5,10).0^{19,23}] tricosa-1(22),5,7,9,17,19(23), 20-heptaen-4-one] the value was 51 nM.
In the case of `COc1cc(C(=O)N2CC[C@@H](OC)[C@@H](N)C2)cc2nc(-c3cc4ccc5nc4n3CCCCCc3ccnc(Cl)c3C(=O)N[C@@H]5C)n(C)c12` [Example 655, (2~{R})-17-[5-[(3~{S},4~{R})-3-amino-4-methoxy-piperidine-1-carbonyl]-7-methoxy-1-methyl-benzimidazol-2-yl]-6-chloro-2-methyl-3,7,16,22-tetrazatetracyclo[14.5.2.0^ {5,10}.0^{19,23}] tricosa-1(22),5,7,9,17,19(23), 20-heptaen-4-one], the half-maximal inhibitory concentration (IC50) came out at 60 nM.
For `COc1cc(C(=O)N2CC[C@@H](OC)[C@@H](N)C2)cc2nc(-c3cc4ccc5nc4n3CCCCCc3nccc(F)c3C(=O)N[C@@H]5C)n(C)c12` [Example 656, (2˜{R})-17-[5-[(3˜{S},4˜{R})-3-amino-4-methoxy-piperidine-1-carbonyl]-7-methoxy-1-methyl-benzimidazol-2-yl]-6-fluoro-2-methyl-3,9,16,22-tetrazatetracyclo[14.5.2.0^{5,10}.0^{19,23}]tricosa-1(22),5,7,9,17,19(23),20-heptaen-4-one] the value was 124 nM.
With `COc1cc(C(=O)N2CCC[C@@H](N)[C@H]2C)cc2nc(-c3cc4ccc5nc4n3CCCCCc3cncc(F)c3C(=O)N[C@@H]5C)n(C)c12` [Example 657, (2~{R})-17-[5-[(2~{R},3~{R})-3-amino-2-methyl-piperidine-1-carbonyl]-7-methoxy-1-methyl-benzimidazol-2-yl]-6-fluoro-2-methyl-3,8,16,22-tetrazatetracyclo [14.5.2.0^{5,10}.0^{19,23}] tricosa-1(22),5,7,9,17,19(23), 20-heptaen-4-one] the figure was 14 nM.
